# Measurements published in patent US20260166039A1 (SCHRÖDINGER, INC., priority 2022, published 2026).
# Target: T1, Wee1 kinase domain (Homo sapiens, UniProt P30291)
# T1 construct: Wee1 kinase domain was purchased from Carna (catalog #05-177); purchased Carna 05-177
# Assay: Wee1 Kinase Biochemical Assay (ADP-Glo)
# Conditions: 1 nM Wee1 enzyme, 15 uM ATP, 4 hours at 25° C
# In short: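 1 nM enzyme; 15 uM ATP; 2 ng/mL poly(Lys,Tyr 4:1); 40 mM Tris-HCl, 20 mM MgCl2, 0.1 mg/mL BSA, 2 mM DTT; 4 h, 25 °C; ADP-Glo; % inhibition vs DMSO and saturating positive-control wells.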
# T1 sequence (P30291 299-569 limits assumed): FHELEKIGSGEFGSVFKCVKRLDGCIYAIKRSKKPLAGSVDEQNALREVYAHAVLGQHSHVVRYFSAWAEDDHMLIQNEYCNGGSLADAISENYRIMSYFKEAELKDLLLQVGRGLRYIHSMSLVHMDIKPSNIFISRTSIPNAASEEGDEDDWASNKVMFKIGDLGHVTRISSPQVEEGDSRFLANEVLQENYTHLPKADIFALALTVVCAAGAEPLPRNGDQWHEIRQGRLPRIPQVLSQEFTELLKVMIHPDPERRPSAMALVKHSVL
row,SMILES,IC50 [µM]
1,"CN1CCN(c2ccc(Nc3ncc4c(n3)N(c3ccc(=O)n(C)n3)[C@@H]3CC(C)(C)OC[C@]43C)cc2)CC1 (single isomer, unassigned) [Example 826]",< 0.01
2,"CN(C)[C@H]1CCN(c2ccc(Nc3ncc4c(n3)N(c3ccccn3)[C@@H]3CC(C)(C)OC[C@]43C)cc2)C1 [Example 820, (4bR,8aR)-N-(4-((S)-3-(dimethylamino)pyrrolidin-1-yl)phenyl)-4b,7,7-trimethyl-9-(pyridin-2-yl)-4b,5,7,8,8a,9-hexahydropyrano[3′,4′:4,5]pyrrolo[2,3-d]pyrimidin-2-amine]",< 0.01
3,"CC(C)n1ccc(Nc2ncc3c(n2)N(c2cccc(N=S(C)(C)=O)n2)[C@@H]2CC(C)(C)OC[C@]32C)n1 (single isomer, unassigned) [Example 832]",< 0.01
4,"CN1CCN(c2ccc(Nc3ncc4c(n3)N(c3cccnn3)[C@@H]3CC(C)(C)OC[C@]43C)cc2)CC1 (single isomer, unassigned) [Example 828]",< 0.01

# Same assay, conditions: Wee1 kinase domain, 15 uM ATP, ADP-Glo
row,SMILES,IC50 [µM]
1,"CN1CC[C@@](C)(c2ccc(Nc3ncc4c(n3)N(c3cccc(N=S(C)(C)=O)n3)[C@H]3CC(C)(C)OC[C@@]43C)cc2)C1 (single isomer, unassigned) [Example 170]",0.01 to 0.1
2,"C[C@H]1COC(=O)N1c1cccc(N2c3nc(Nc4cnn(C5CCN(C)CC5)c4)ncc3[C@]3(C)COC(C)(C)C[C@H]23)n1 (single isomer, unassigned) [Example 242]",0.01 to 0.1
3,"C[C@H]1COC(=O)N1c1cccc(N2c3nc(Nc4ccc(O[C@H]5CCN(C)C5)nc4)ncc3[C@]3(C)COC(C)(C)C[C@H]23)n1 (single isomer, unassigned) [Example 280]",0.1 to 1
4,"CNCc1cccc(N2c3nc(Nc4ccc([C@@H]5CCOC5)cc4)ncc3[C@]3(C)COC(C)(C)C[C@H]23)n1 (single isomer, unassigned) [Example 37]",0.1 to 1
5,"C[C@H]1COC(=O)N1c1cccc(N2c3nc(Nc4ccc(OC5CNC5)nc4)ncc3[C@]3(C)COC(C)(C)C[C@H]23)n1 (single isomer, unassigned) [Example 342]",0.1 to 1
6,"CNCc1cccc(N2c3nc(Nc4ccc(N5CCC(F)(F)CC5)cc4)ncc3[C@]3(C)COC(C)(C)C[C@H]23)n1 (single isomer, unassigned) [Example 15]",0.01 to 0.1
7,"C[C@H]1COC(=O)N1c1cccc(N2c3nc(Nc4ccc(C5CN(C)C5)cc4)ncc3[C@]3(C)COC(C)(C)C[C@H]23)n1 (single isomer, unassigned) [Example 309]",0.01 to 0.1
8,"CNCc1cccc(N2c3nc(Nc4ccc([C@@H]5CCCO5)cc4)ncc3C3(C)COC(C)(C)C[C@H]23)n1 (single isomer, unassigned) [Example 57]",0.01 to 0.1
9,"CN1CC(c2ccc(Nc3ncc4c(n3)N(c3cccc(N=S(C)(C)=O)n3)[C@H]3CC(C)(C)OC[C@@]43C)cc2Cl)C1 (single isomer, unassigned) [Example 182]",0.1 to 1
10,"CC1(C)C[C@@H]2N(c3cccc(N=S(C)(C)=O)n3)c3nc(Nc4ccc(C5CNC5)nc4)ncc3[C@]2(C)CO1 (single isomer, unassigned) [Example 191]",0.1 to 1
11,"CN1CCC(n2ccc(Nc3ncc4c(n3)N(c3cccc(N=S(C)(C)=O)n3)C3CC(C)(C)OCC43C)cc2=O)CC1 (single isomer, unassigned) [Example 151]",0.1 to 1
12,"CN[C@H]1CCN(c2ccc(Nc3ncc4c(n3)N(c3cccc(N5C(=O)OC[C@@H]5C)n3)[C@H]3CC(C)(C)OC[C@@]43C)cc2)C1 (single isomer, unassigned) [Example 316]",0.01 to 0.1

# Same assay, conditions: class symbols; 1 nM Wee1 enzyme, 15 uM ATP, 4 hours at 25° C.
row,SMILES,IC50 [µM]
1,"CC1(C)C[C@H]2N(c3cccc([C@@H]4CNCCO4)n3)c3nc(Nc4ccc(N5CCOCC5)cc4)ncc3[C@@]2(C)CO1 [Example 735, (4bR,8aR)-4b,7,7-trimethyl-9-(6-((S)-morpholin-2-yl)pyridin-2-yl)-N-(4-morpholinophenyl)-4b,5,7,8,8a,9-hexahydropyrano[3′,4′:4,5]pyrrolo[2,3-d]pyrimidin-2-amine]",0.01 to 0.1
2,"CN1C[C@@H]2C[C@H]1CN2c1ccc(Nc2ncc3c(n2)N(c2cccc(C4(O)CC4)n2)[C@H]2CC(C)(C)OC[C@@]32C)cc1 [Example 645, 1-(6-((4bS,8aS)-4b,7,7-trimethyl-2-((4-((1S,4S)-5-methyl-2,5-diazabicyclo[2.2.1]heptan-2-yl)phenyl)amino)-4b,7,8,8a-tetrahydropyrano[3′,4′:4,5]pyrrolo[2,3-d]pyrimidin-9(5H)-yl)pyridin-2-yl)cyclopropan-1-ol]",0.1 to 1
3,"CN[C@H](C)c1cccc(N2c3nc(Nc4ccc(N5CCOCC5)cc4)ncc3[C@]3(C)COC(C)(C)C[C@H]23)n1 (single isomer, unassigned) [Example 550]",0.1 to 1
4,"CN1CCN(c2ccc(Nc3ncc4c(n3)N(c3cccc(N=S(C)(C)=O)n3)[C@@H]3CC(C)(C)OC[C@]43C)cn2)CC1 (single isomer, unassigned) [Example 509]",< 0.01
5,"CN1CC2(C1)CN(c1ccc(Nc3ncc4c(n3)N(c3cccc(N5CCCC5=O)n3)[C@H]3CC(C)(C)OC[C@@]43C)cc1)C2 [Example 691, 1-(6-((4bS,8aS)-4b,7,7-trimethyl-2-((4-(6-methyl-2,6-diazaspiro[3.3]heptan-2-yl)phenyl)amino)-4b,7,8,8a-tetrahydropyrano[3′,4′:4,5]pyrrolo[2,3-d]pyrimidin-9(5H)-yl)pyridin-2-yl)pyrrolidin-2-one]",0.1 to 1
6,"CC1(C)C[C@@H]2N(c3cccc(N4CCOC4=O)n3)c3nc(Nc4ccc(O[C@H]5CCNC5)cc4)ncc3[C@]2(C)CO1 [Example 612, 3-(6-((4bS,8aS)-4b,7,7-trimethyl-2-((4-(((S)-pyrrolidin-3-yl)oxy)phenyl)amino)-4b,7,8,8a-tetrahydropyrano[3′,4′:4,5]pyrrolo[2,3-d]pyrimidin-9(5H)-yl)pyridin-2-yl)oxazolidin-2-one]",0.1 to 1
7,"CNCc1cccc(N2c3nc(Nc4cnnc(C)c4)ncc3[C@@]3(C)COC(C)(C)C[C@@H]23)n1 (single isomer, unassigned) [Example 478]",0.01 to 0.1
8,"CN1C[C@@H]2CN(c3ccc(Nc4ncc5c(n4)N(c4cccc(N6CCOC6=O)n4)[C@H]4CC(C)(C)OC[C@@]54C)cc3)C[C@@H]2C1 [Example 693, 3-(6-((4bS,8aS)-46,7,7-trimethyl-2-((4-((3aR,6aS)-5-methylhexahydropyrrolo[3,4-c]pyrrol-2(1H)-yl)phenyl)amino)-4b,7,8,8a-tetrahydropyrano[3′,4′:4,5]pyrrolo[2,3-d]pyrimidin-9(5H)-yl)pyridin-2-yl)oxazolidin-2-one]",0.1 to 1
9,"CN1[C@@H]2C[C@H]1CN(c1ccc(Nc3ncc4c(n3)N(c3cccc(C(C)(C)O)n3)[C@H]3CC(C)(C)OC[C@@]43C)cc1)C2 (single isomer, unassigned) [Example 442]",0.1 to 1
10,"CC1(C)C[C@H]2N(c3cccc(C(C)(C)O)n3)c3nc(Nc4ccc(O[C@@H]5CCNC5)cc4)ncc3[C@@]2(C)CO1 (single isomer, unassigned) [Example 418]",0.01 to 0.1
11,"CN[C@@H](C)c1cc(C)nc(N2c3nc(Nc4ccc(N5CCOCC5)cc4)ncc3[C@]3(C)COC(C)(C)C[C@H]23)c1 (single isomer, unassigned) [Example 559]",≥ 1
12,"CC1(C)C[C@H]2N(c3cccc(N=S(C)(C)=O)n3)c3nc(NC(=O)c4ccccc4F)ncc3[C@@]2(C)CO1 (single isomer, unassigned) [Example 409]",0.1 to 1
13,"CNCc1cccc(N2c3nc(Nc4ccc(=O)n(C)c4)ncc3[C@]3(C)COC(C)(C)C[C@H]23)n1 (single isomer, unassigned) [Example 461]",≥ 1
14,"CN1CC[C@H](Oc2ccc(Nc3ncc4c(n3)N(c3cccc(N5CCOC5=O)n3)[C@H]3CC(C)(C)OC[C@@]43C)cc2)C1 [Example 614, 3-(6-((4bS,8aS)-4b,7,7-trimethyl-2-((4-(((S)-1-methylpyrrolidin-3-yl)oxy)phenyl)amino)-4b,7,8,8a-tetrahydropyrano[3′,4′:4,5]pyrrolo[2,3-d]pyrimidin-9(5H)-yl)pyridin-2-yl)oxazolidin-2-one]",0.1 to 1
15,"CC[C@@]1(O)CCc2ccc(N3c4nc(Nc5ccc(N6CCN(C)CC6)cc5)ncc4[C@@]4(C)COC(C)(C)C[C@@H]34)nc21 [Example 787, (R)-7-ethyl-2-((4bR,8aR)-4b,7,7-trimethyl-2-((4-(4-methylpiperazin-1-yl)phenyl)amino)-4b,7,8,8a-tetrahydropyrano[3′,4′:4,5]pyrrolo[2,3-d]pyrimidin-9(5H)-yl)-6,7-dihydro-5H-cyclopenta[b]pyridin-7-ol]",< 0.01
16,"CC1(C)C[C@H]2N(c3cccc(N=S(C)(C)=O)n3)c3nc(NC(=O)c4cccnc4)ncc3[C@@]2(C)CO1 (single isomer, unassigned) [Example 405]",0.01 to 0.1
17,"CN1CC[C@H](OC(=O)Nc2ncc3c(n2)N(c2cccc(N=S(C)(C)=O)n2)[C@@H]2CC(C)(C)OC[C@]32C)C1 (single isomer, unassigned) [Example 773]",0.01 to 0.1
18,"CC1(C)C[C@H]2N(c3cccc([C@H]4CCCN4)n3)c3nc(Nc4ccc(N5CCOCC5)cc4)ncc3[C@@]2(C)CO1 (single isomer, unassigned) [Example 528]",< 0.01
19,"CN1C[C@@H]2C[C@H]1CN2c1ccc(Nc2ncc3c(n2)N(c2cccc(C(C)(C)O)n2)[C@H]2CC(C)(C)OC[C@@]32C)cc1Cl (single isomer, unassigned) [Example 436]",0.01 to 0.1
20,"Cc1cc(Nc2ncc3c(n2)N(c2cccc(N4CCCC4=O)n2)[C@H]2CC(C)(C)OC[C@@]32C)ccc1N1C[C@H]2C[C@@H]1CN2C [Example 659, 1-(6-((4bS,8aS)-4b,7,7-trimethyl-2-((3-methyl-4-((1R,4R)-5-methyl-2,5-diazabicyclo[2.2.1]heptan-2-yl)phenyl)amino)-4b,7,8,8a-tetrahydropyrano[3′,4′:4,5]pyrrolo[2,3-d]pyrimidin-9(5H)-yl)pyridin-2-yl)pyrrolidin-2-one]",0.01 to 0.1
